Source: the SangsterLogP compilation

What was measured:
[1] = method code SF-AS, from DOI: 10.1021/jm00213a023, PMID: 321779
[2] = method code SF-C, from DOI: 10.1021/jm00213a023, PMID: 321779
[3] = method code SF, from DOI: 10.1021/jm00213a023, PMID: 321779

| Structure (SMILES) | logP [1] | other results |
| --- | --- | --- |
| CCCCOc1cc(N)ccc1C(=O)O | 1.24 | – |
| Nc1ccc(C(=O)O)c(Br)c1 | 1.49 | – |
| CCCCCCCOc1cc(N)ccc1C(=O)O | 3.37 | – |
| Nc1ccc(C(=O)O)c(N)c1 | -0.31 | – |
| CCCCCOc1cc(N)ccc1C(=O)O | 2.38 | – |
| Cc1cc(N)ccc1C(=O)O | – | logP [2]: 1.14 |
| COc1cc(N)ccc1C(=O)O | 0.45 | – |
| CCCCCCCCOc1cc(N)ccc1C(=O)O | 3.77 | – |
| Nc1ccc(C(=O)O)cc1Cl | 2.35 | – |
| CC(C)CCOc1cc(N)ccc1C(=O)O | 2.3 | – |
| Nc1ccc(C(=O)O)cc1N1C(=O)CSC1=S | – | logP [3]: 1.66 |
| Nc1ccc(C(=O)O)c([N+](=O)[O-])c1 | 1.21 | – |
| C=CCOc1cc(N)ccc1C(=O)O | 1.25 | – |
| Nc1ccc(C(=O)O)c(I)c1 | 1.65 | – |
| Nc1ccc(C(=O)O)c(Cl)c1 | 1.33 | – |
| Nc1ccc(C(=O)O)cc1F | 1.41 | – |
| Nc1ccc(C(=O)O)c(F)c1 | 1.29 | – |
| Nc1ccc(C(=O)O)cc1O | 0.5 | – |
| Nc1ccc(C(=O)O)cc1N | 0.13 | – |
| Nc1ccc(C(=O)O)cc1I | 2.36 | – |
| CCOc1cc(N)ccc1C(=O)O | – | logP [3]: 0.99 |
| Nc1ccc(C(=O)O)cc1Br | 2.23 | – |
